Here are results for four compounds from patent US9611223B2, “3-aryl-5-substituted-isoquinolin-1-one compounds and their therapeutic use” (INSTITUTE OF CANCER RESEARCH: ROYAL CANCER HOSPITAL (THE), priority 2013, dated 2017).

SMILES strings stand for the structures.

In assay [1] the target is T1, TNKS1 (Homo sapiens, UniProt O95271, M1266I).
T1 construct: expresses the active PARP domain of TNKS1 as a polyhistidine tagged protein; made in house; host or cells: E. coli Rosetta2(DE3)
The assay is described as follows: TNKS1/PARP Biochemical Assay. The procedure:
TNKS1/PARP Biochemical Assay
Tankyrase activity was assayed using a 96-well format HT Universal Chemiluminescent PARP Assay Kit (Trevigen, Inc, cat. no. 4676-096-K) according to the manufacturer's instructions. In short, tankyrase/PARP activity is quantified by the incorporation of biotinylated nicotinamide adenine dinucleotide (biotin-NAD^+) onto the immobilised pseudo substrate, Histone. The extent of poly(Biotin-ADP)ribosylation (PARylation) in the presence of increasing dose of inhibitor is then quantified by binding of streptavidin conjugated horse radish peroxidase (strep-HRP) followed by chemiluminescent detection.
Prior to assay initiation, inhibitor stocks were prepared in aqueous DMSO (10% (v/v)) from 5 millimolar (mM) stock in 100% DMSO (Sigma Aldrich, cat. no. 265855) as 10× concentrations. For the primary assay (i.e., single dose at 1 micromolar (μM) final concentration) this corresponded to 10 μM in 10% DMSO. For IC50 determination, this corresponded to 100 μM, 30 μM, 10 μM, 3.0 μM, 1.0 μM, 0.30 μM, 0.10 μM and 0 μM in 10% DMSO for final concentrations of 10 μM, 3.0 μM, 1.0 μM, 0.30 μM, 0.10 μM, 0.030 μM, 0.010 μM, and 0 μM with 1% (v/v) final DMSO. The assay was initiated by the addition of 10× inhibitor (5 microliters (μL)) or 10% aqueous DMSO (5 μL) to triplicate wells. Twenty microliters of diluted TNKS1 protein (200 nanomolar (nM) final conc.) in PARP buffer (Trevigen, Inc, cat. no. 4671-096-02) was added to each histone coated well, which was previously hydrated with PARP buffer. Triplicate wells with 1% DMSO/buffer alone (no enzyme) were also added as a measure of assay ‘noise’. Positive control for PARP inhibition included the addition of 4-amino-1,8-naphthalimide (Sigma Aldrich, cat. no A0966) in corresponding doses.
The mixture was incubated for 10 minutes at room temperature and the PARylation reaction initiated by the addition of PARP cocktail (25 μL, Trevigen, Inc) containing biotin-NAD^+ (Trevigen, Inc, cat. no. 4670-500-01), activated DNA (Trevigen, Inc, cat. no. 4671-096-06) and PARP buffer. The reaction was incubated for 1.5 hours (for TNKS1) or 1 hour (for PARP1) at room temperature. The reaction mixture was then removed by aspiration and the wells washed (3×200 μL) with phosphate buffered saline containing Triton X-100 (0.1% (v/v), Sigma Aldrich cat. no. T8787). The wells were then washed (3×200 μL) with phosphate buffered saline and then incubated with strep-HRP (50 μL, Trevigen, Inc, cat. no. 4800-30-06) in strep-diluent (1:500 dilution, Trevigen Inc, cat. no. 4671-096-04) for 1 hour at room temperature. The Strep-HRP mixture was then aspirated and the wells washed (3×200 μL) with phosphate buffered saline containing Triton X-100 (0.1% (v/v)) followed by phosphate buffered saline (3×200 μL) and then incubated with PeroxyGlow™ reagent (100 μL, Trevigen, Inc, cat. nos. 4675-096-01, 4675-096-02, room temperature, mixed 1:1).
The amount of light emitted as a result of the peroxidase-chemiluminescent reagent reaction was in proportion to the extent of poly(Biotin-ADP)ribosylation and was immediately measured with a Victor^2 plate reader (Perkin Elmer, luminescence detection assay, luminescent units described as ‘Counts Per Second’ (CPS)). The data were normalised to the DMSO control after subtraction of ‘noise’ and was expressed as % PARP activity as a function of inhibitor dose. Inhibition was expressed as 100%−(% PARP activity). Dose response curves used to determine IC50 values were Log transformed and analysed by non-linear regression analysis (variable slope) using Prism (GraphPad Software, Inc) and were presented as IC50 with 95% confidence interval to determine relative potency.
Tankyrase1 (pNIC-Bsa4-TNKS1^PARP) expression construct was obtained from the Structural Genomics Consortium (SGC) and expresses the active PARP domain of TNKS1 as a polyhistidine tagged protein. […]

The test system of assay [2] is COLO320DM cells. As to the kind of experiment: Tumour Cell Inhibition Assay (COLO320DM cells). The assay is classed as cell-based. As to conditions: Homo sapiens, COLO 320DM, 120 h, five day exposure, read-out: cell inhibitory SF50 (COLO320DM). As for the experimental part: Tumour Cell Inhibition in Colorectal Tumour Cells
In order to determine the efficacy of acute dosing of putative TNKS inhibitors, five day exposure cell viability assays were carried out. This included the sparse seeding of cells in a 96-well plate followed by continuous dosing of cells over a five day period.
Appropriate cell lines (HT55, COLO320DM and SW620) were seeded at 500 cells/well in a 96-well plate in MEM (HT55), RPMI (COLO320DM) or DMEM (SW620) supplemented with FBS. After overnight incubation, cells were treated with the appropriate putative TNKS inhibitor in 6 or 10 concentrations ranging from 0 μM to 10 μM at 0.2% final DMSO concentration in appropriate media supplemented with 10% or 0.5% FBS. Dosages were carried out in triplicate. Termination of the assay and measurement of cell viability was achieved by the use of Cell Titre Glo reagent and luminescence measurement on an appropriate plate reader.
Dose response curves used to determine SF50 values were Log transformed and analysed by non-linear regression analysis (variable slope) using Prism (GraphPad Software, Inc).

The test system of assay [3] is HT55 cells. The assay is described as follows: Long-Term Clonogenic Assay (HT55 cells). As to conditions: Homo sapiens, 12-14 days, read-out: cell inhibitory SF50 (HT55). The assay is classed as cell-based. As for the experimental part: Clonogenic Inhibition in DLD1 or HT55 Cells
In order to determine the efficacy of chronic dosing of putative TNKS inhibitors, long term clonogenic or ‘colony formation’ assays were carried out. This included the sparse seeding of cells in a 6-well dish followed by continuous dosing of cells over 12-14 days (depending on relative cell growth). Appropriate cell lines (DLD1 or HT55) were seeded at 500 cells/well in a 6-well dish in DMEM supplemented with FBS. After overnight incubation, cells were treated with the appropriate putative TNKS inhibitor at 10 μM, 3 μM, 1 μM, 0.30 μM, 0.1 μM and 0 μM at 0.2-1% final DMSO concentration (cell line dependent) in DMEM supplemented with 10% FBS (DLD1 cells were dosed in DMEM supplemented with 0.5% FBS). Dosages were carried out in triplicate. Cell media containing compound or DMSO only was replenished every 48 hours. On termination of the assay, plates were read with Cell Titre Glo reagent and luminescence measured on an appropriate plate reader.
The data was normalised to the DMSO control and was expressed as surviving fraction as a function of inhibitor dose. Dose response curves used to determine SF50 values were Log transformed and analysed by non-linear regression analysis (variable slope) using Prism (GraphPad Software, Inc).

T1 sequence (O95271 1112-1317 M1266I): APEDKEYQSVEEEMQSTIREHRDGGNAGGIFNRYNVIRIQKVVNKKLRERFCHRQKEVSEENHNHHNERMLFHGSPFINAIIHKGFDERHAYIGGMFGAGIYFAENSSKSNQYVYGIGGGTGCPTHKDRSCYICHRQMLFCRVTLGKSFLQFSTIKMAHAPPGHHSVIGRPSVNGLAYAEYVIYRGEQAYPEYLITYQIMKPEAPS

For `CN(C)C1CCN(Cc2ccc(-c3cc4c(C#N)cccc4c(=O)[nH]3)cc2)C1` (stereo not drawn) [IQ-011], the IC50 in assay [1] was less than 0.1 µM; in assay [2], less than 5 µM; in assay [3], less than 5 µM.

Regarding `CN(C)C1CCN(Cc2ccc(-c3cc4c(C#N)cccc4c(=O)[nH]3)cc2)CC1` [IQ-012], the values for the IC50 in assay [1], in assay [2] and in assay [3] were less than 0.05 µM, less than 5 µM and less than 5 µM, respectively.

As to `CN1CCN(Cc2ccc(-c3cc4c(C#N)cccc4c(=O)[nH]3)cc2)CC1` [IQ-002, 3-[4-(4-Methyl-piperazin-1-ylmethyl)-phenyl]-1-oxo-1,2-dihydro-isoquinoline-5-carbonitrile], the IC50 in assay [1] is less than 0.05 µM; in assay [2], less than 5 µM; in assay [3], less than 5 µM.

Regarding `CN1CCN(Cc2ccc(-c3cc4c(C#N)cc(F)cc4c(=O)[nH]3)cc2)CC1` [IQ-014], the IC50 in assay [1] was less than 0.1 µM; in assay [2], less than 5 µM; in assay [3] it was less than 5 µM.
